These results are taken from patent US20250243180A1, “TARGETED PROTEIN DEGRADATION” (Monte Rosa Therapeutics AG, priority 2023, published 2025).

pIC50: −log10 of the molar value.

The test system of data set [1] is New Zealand White rabbits, MSU crystal gout model. Description: In vivo rabbit gout model (intra-articular MSU): joint swelling and CD31 staining. To be noted: daily prophylactic treatment. As to the method:
MSU crystals were prepared by dissolving uric acid (Aladdin, cat #U105582) in boiling water (1 g in 200 mL with 6 mL of 1 N NaOH). PH value was adjusted to 7.2 by HCl. The solution was stirred and cooled to room temperature and stored at 4° C. overnight. The precipitate was filtered with filter paper and dried under low heat to obtain MSU crystals. New Zealand White rabbits received an intra-articular injection of 1 mL of MSU crystals (50 mg/mL) into both knees (MSU group) or PBS (as vehicle, control group). n=10 for MSU groups; n=6 for PBS group.
For immunohistochemistry, bone sections were stained with anti-CD31 (Abcam #ab9498) diluted at 1:500. The nuclei were stained with hematoxylin. Slides were scanned using LEICA Aperio GT450 at 400× magnification. The number of positive blood vessels were counted blindly.
(a) To determine NEK7 degradation, spleens and peripheral blood mononuclear cells (PBMC) were analyzed by JESS for NEK7 and normalized to α-Tubulin from five representative animals. (b) The degree of joint swelling was determined by caliper measurements at the indicated time points. (c) Rabbit bone tissue sections were stained and quantified for anti-CD31 immunohistochemistry. Results expressed as mean±SEM. Statistical analysis was performed using two-way ANOVA. The difference was considered significant when p<0.05.

Data set [2] concerns NEK7. Description: NEK7 level in PBMC of NHP after oral dosing. It counts as in vivo, cynomolgus monkeys. The following applies: oral 5 mg/kg for 5 days. As to the method:
Non-naïve male and female non-human primate (NHP) cynomolgus monkeys were orally administered with 5 consecutive daily doses of Compound 14 at 5 mg/kg, n=2 per dose group, 1 male and 1 female. Compound formulation was prepared on the day of administration in 0.5% methyl cellulose (4000 cps) in water and animals were fasted overnight. Plasma collected post dose were analyzed using a non GLP LC/MS/MS bioanalytical method to evaluate the compound concentration. Whole blood collected post dose were processed to PBMC and were analyzed using western blot method. Plasma pharmacokinetics and PMBC pharmacodynamics were assessed longitudinally throughout dosing and following dosing cessation.
In Table 8 compound 14 induces NEK7 degradation in vivo. NEK7 protein levels were assessed in PBMC isolated from NHP after oral administration for 5 consecutive days of Compound 14 at 5 mg/kg, n=2 per dose group. NEK7 levels were normalized to β-actin, as determined by JESS, at the indicated time points. NEK7 level at pre dose was normalized to 100%. Days 10 and 15 correspond to recovery period, 5 or 10 days after drug administration, respectively.

For a further data set, the system named is IL-1β. Description: IL-1β in human monocyte-derived macrophages, LPS/MSU stimulation. The following applies: 24 h pre-treatment, LPS + MSU 6 h, eight donors. It counts as cell-based. On the procedure:
Human monocytes were enriched and isolated from a buffy coat of whole blood with a RosetteSep™ Human Monocyte Enrichment Cocktail (Cat.No. 15068, StemCell) and Ficoll-Plaque PLUS (Cat.No. H8889, Sigma). Monocytes were differentiated into macrophages by treatment with 100 ng/mL M-CSF for 6 days at 37° C., 5% CO2. Differentiated macrophages were seeded overnight (50,000 cells/well) in 100 μL of medium in a 96-well white-bottom plate at 37° C., 5% CO2. Cells were treated with a concentration range of MGD or the NLRP3 inhibitor selnoflast (Cat.No. HY-132831, MedChemExpress) for 24 h prior to stimulation with monosodium urate crystals (MSU). Macrophages were stimulated with […] lipopolysaccharide (LPS) and 0.2 mg/mL MSU for 6 h. Medium of stimulated macrophages were collected and assayed for caspase-1 activity directly (Promega G9951) as well as IL-1β (Promega W6010), according to manufacturer's instructions.
(a, b) Human monocyte-derived macrophages pre-treated with a dose-response of Compound 14 or selnoflast (NLRP3 inhibitor) for 24 h and stimulated with a combination of lipopolysaccharide (LPS) and monosodium urate crystals (MSU) for 6 h prior to supernatant collection. Monocytes were isolated from eight human donors. Caspase-1 (a) and IL-1β (b) in the supernatant are measured and data are expressed as percentage relative to mean values of DMSO conditions for each donor (technical triplicates). Means of eight donors are plotted and analyzed using a four-parameter logistic regression model.

Data set [3] deals with NEK7. The data set is described as follows: NEK7 degradation in the brain of NHP (JESS). It counts as in vivo. The following applies: oral 30 mg/kg for 7 days; for Average percent NEK7/β-actin in brain, relative to vehicle: 24 h after final dose. On the procedure: (§1) Naïve NHP were orally administered with 7 consecutive daily dose of Compound 14 at 30 mg/kg, n=4 per dose group, 2 male and 2 female. Compound formulation was prepared on the day of administration in 0.5% methyl cellulose (4000 cps) in water and animals were fed twice a day; water was available ad libitum. Plasma collected posted dose on Day 1 and Day 7 were analyzed using a non GLP LC/MS/MS bioanalytical method to evaluate the compound concentration. Brain samples were harvested 24 h after final dose. Lysates for different brain regions (hippocampus, frontal cortex, and cerebellum) were prepared in M-PER lysis buffer and diluted at total protein concentration of 0.4 mg/mL in 0.1× sample buffer (12-230 kDa detection module; Protein Simple). The anti-NEK7 rabbit mAb (Abcam #AB133514) was used at 1:100 and anti-β-actin rabbit mAb (CST #5125) was used at 1:500. Samples were probed for NEK7 and β-actin protein levels by JESS, and quantified relative to vehicle control.
In Table 11, NEK7 protein degradation in brains of NHP following oral dosing of Compound 14 is reported. NHP received daily oral administration of 30 mg/kg of Compound 14 or vehicle for 7 days. For Compound 14 group, n=4 (two male and two female); for vehicle, n=2; samples taken 24 h post-final dose. Brains were harvested 24 h after final dose, sectioned by region (hippocampus, frontal cortex, cerebellum), and analyzed for NEK7 and beta-actin protein levels by JESS. The average percent of NEK7 was quantified by brain region and normalized to β-actin.

Data set [4] in a line: Plasma pharmacokinetics in NHP, 30 mg/kg oral for 7 days. Format: in vivo. To be noted: oral 30 mg/kg daily for 7 days, average male and female. As to the method: as §1
In Table 10, concentration of Compound 14 in NHP plasma following administration via oral gavage after 7 days post dose at 30 mg/kg is reported. NHP received daily oral administration of 30 mg/kg of Compound 14 for 7 days, n=2.

Setting [5] is: both sexes, monkey, plasma, po, 30 mg/kg.
[6] abbreviates: both sexes, non-human primate (NHP).

Take `CC(C)(C(=O)NCc1cc(Cl)c(C2CCC(=O)NC2=O)c(Cl)c1)c1ncc(C#N)cn1` (stereo not drawn) [Compound 16, 2-(5-cyanopyrimidin-2-yl)-N-(3,5-dichloro-4-(2,6-dioxopiperidin-3-yl)benzyl)-2-methyl-propanamide]: in data set [1], the “CD31 staining in bone tissue” value is on record as “improvement” and the “joint swelling induced by intra-articular MSU injection” value is “improvement”.
The pIC50 is the negative decadic logarithm of the IC50, by convention in mol/L. In general, Cmax refers to the peak of the concentration-time curve. For orientation: Tmax means the time from dosing to the highest level. For orientation: AUC(0-t) means the area under the concentration-time curve up to a stated or last time point. The low end stands for low exposure, the high end for high exposure. As for `Cc1cnc(C(C)(C)C(=O)NCc2cc(Cl)c(C3CCC(=O)NC3=O)c(Cl)c2)nc1` (stereo not drawn) [Compound 14, N-(3,5-dichloro-4-(2,6-dioxopiperidin-3-yl)benzyl)-2-methyl-2-(5-methylpyrimidin-2-yl)-propanamide], the “Average percent NEK7/β-actin in PBMC, relative to predose” value in the data set with NEK7 [2] (Day 1, 6 h) is 56%; in the data set on NEK7 [2] (Day 1, 24 h), 44%; in the data set with NEK7 [2] (Day 5, 6 h) it was 27%; with NEK7 [2] (Day 5, 24 h), 15%; with NEK7 [2] (Day 10, 24 h (recovery)), 45%; in the data set with NEK7 [2] (Day 15, 24 h (recovery)), 141%. Besides, the “IL-1β Imax” value in the data set on IL-1β amounted to 70%. Moreover, the pIC50 with IL-1β (Homo sapiens, Macrophage) is 8.96. In addition, in the data set with NEK7 [3], the “degradation of NEK7 across three different brain regions” value is “around 80%”. In addition, the figures for the “Average percent NEK7/β-actin in brain, relative to vehicle” value in the data set on NEK7 [3] (Cerebellum), in the data set on NEK7 [3] (Frontal Cortex) and in the data set on NEK7 [3] (Hippocampus) were 18.2%, 20.3% and 21.3%, respectively. Also, the Cmax in data set [4] (both sexes, monkey) was 6600 ng/mL; in data set [4] (setting [6]) it was 6600 ng/mL. Further, the Tmax in data set [4] (both sexes, monkey) was 1.75 h; in data set [4] (setting [6]), 1.75 h. In data set [4] (setting [5]), this molecule gave an AUC0-24h of 36600 ng·h/mL. For the same molecule, the area under the curve AUC(0-t) in data set [4] (setting [5]) is 27200 ng·h/mL. For the same molecule, in data set [4], the tlast came out at 8 h.
